In US20040219191A1, “Use of a dopamine agonist with a short half-life for treating illnesses which can be treated by dopaminergic means” (priority 2000, published 2004):

Assay: Water solubility
Details: lisuride or a salt thereof

CCN(CC)C(=O)N[C@H]1C=C2c3cccc4[nH]cc(c34)C[C@H]2N(C)C1 [lisuride, 3-(9,10-didehydro-6-methyl-8α-ergolinyl)-1,1-diethyl urea]
water solubility: good water solubility
